Reference: ChEMBL document CHEMBL1201862, “PubChem BioAssay data set” (2004)
Activity calls are given as the source filed them.

Assays:
[1] = molecular target: Cytochrome P450 3A4 (Homo sapiens, UniProt P08684);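 note: CYP3A4 tested as one member of a cytochrome P450 panel screen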
[2] = viability loss in CEM21 cells – cell-based, CellTiter-Glo luminescence, cherry-picked, cytotoxicity control for viral fusion inhibitor project, dose response (AID 652042); assay type: functional;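 note: potency for signal decrease meaning cytotoxicity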
[3] = blockers of HIV-1 envelope-mediated cell-cell fusion – cherry-pick, dose response (AID 652057); assay type: functional, cell-based
[4] = blockers of HIV-1 ZM109 envelope-driven cell-cell fusion – HeLa effector, CEM target cells, luciferase, cherry-pick, dose response (AID 652058); assay type: functional, cell-based;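 note: luciferase signal from HIV-1 Env mediated cell-cell fusion of effector and target cells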
[5] = HIV-1 AD8 envelope cell-cell fusion blockers – cherry-pick, dose response (AID 652062); assay type: functional, cell-based;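 note: luciferase signal from cell-cell fusion driven by HIV-1 clade B AD8 Env; potency is for inhibitors of fusion seen as a drop in luminescence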
[6] = off-target signal loss in HeLa-CEM21 co-culture – HeLa F-luc CTL cells, cherry-picked, counter-screen for HIV-1 Env fusion inhibitor project, dose response (AID 652040); assay type: functional, cell-based;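 note: potency for signal decrease marking cytotoxic or nonspecific inhibition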
[7] = molecular target: Albumin (Bos taurus, UniProt P02769); experiment: Counterscreen for inhibitors of T-cell receptor (TCR)-CD3 interaction: Fluorescence-based biochemical high throughput dose response assay to identify inhibitors of T-cell receptor (TCR)-CD3 interaction using a TAMRA-labeled BSA probe.; assay type: functional
Chain of Albumin (P02769 whole entry): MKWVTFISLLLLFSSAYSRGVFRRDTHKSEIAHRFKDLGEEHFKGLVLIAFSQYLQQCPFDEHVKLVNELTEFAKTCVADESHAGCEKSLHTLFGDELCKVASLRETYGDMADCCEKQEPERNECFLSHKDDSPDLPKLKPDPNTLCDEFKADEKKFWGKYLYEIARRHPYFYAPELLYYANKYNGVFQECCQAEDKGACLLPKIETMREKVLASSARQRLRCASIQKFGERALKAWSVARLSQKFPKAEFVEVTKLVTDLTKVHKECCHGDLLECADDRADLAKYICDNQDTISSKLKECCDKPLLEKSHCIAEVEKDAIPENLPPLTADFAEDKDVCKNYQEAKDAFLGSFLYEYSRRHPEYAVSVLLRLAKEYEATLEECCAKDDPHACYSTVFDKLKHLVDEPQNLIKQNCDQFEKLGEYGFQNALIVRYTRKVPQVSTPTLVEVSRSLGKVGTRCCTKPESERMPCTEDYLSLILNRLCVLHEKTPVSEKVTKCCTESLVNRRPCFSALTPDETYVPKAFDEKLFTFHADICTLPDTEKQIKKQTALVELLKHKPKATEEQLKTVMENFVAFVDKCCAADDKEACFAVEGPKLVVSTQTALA

[8] = molecular target: T1, Beta-lactamase (Pseudomonas aeruginosa, UniProt Q79MP6); experiment: […] counterscreen for selective VIM-2 inhibitors: dose response biochemical high throughput screening assay to identify inhibitors of IMP-1 metallo-beta-lactamase.
T1 sequence (Q79MP6 whole entry): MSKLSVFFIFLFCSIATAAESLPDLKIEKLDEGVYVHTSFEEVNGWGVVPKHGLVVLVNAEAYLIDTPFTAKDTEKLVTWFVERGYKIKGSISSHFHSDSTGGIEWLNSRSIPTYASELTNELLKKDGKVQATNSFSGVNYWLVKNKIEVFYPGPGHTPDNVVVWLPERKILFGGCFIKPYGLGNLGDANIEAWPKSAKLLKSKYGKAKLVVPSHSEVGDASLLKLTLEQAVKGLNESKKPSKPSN

[9] = molecular target: T1, Beta-lactamase; experiment: inhibition of IMP-1 beta-lactamase activity – biochemical, epi-absorbance, selectivity assay for VIM-2 inhibitor project, dose response (AID 1920)
[10] = molecular target: Beta-lactamase (Salmonella choleraesuis (strain SC-B67), UniProt Q5J463); experiment: Epi-absorbance-based counterscreen for selective VIM-2 inhibitors: dose response biochemical high throughput screening assay to identify inhibitors of TEM-1 serine-beta-lactamase.
Chain of Beta-lactamase (Salmonella choleraesuis (strain SC-B67), UniProt Q5J463) (Q5J463 whole entry): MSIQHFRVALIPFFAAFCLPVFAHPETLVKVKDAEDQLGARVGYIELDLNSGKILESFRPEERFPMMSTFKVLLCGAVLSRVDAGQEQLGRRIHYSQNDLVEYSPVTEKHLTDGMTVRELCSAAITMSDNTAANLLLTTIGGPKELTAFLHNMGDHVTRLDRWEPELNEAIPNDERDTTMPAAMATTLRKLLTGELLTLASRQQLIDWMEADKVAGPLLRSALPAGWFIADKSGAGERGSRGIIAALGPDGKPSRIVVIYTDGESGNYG

[11] = molecular target: T2, Heat shock factor protein 1 (Mus musculus, UniProt P38532); experiment: enhancement of HSF1-driven luciferase signal – cell-based, NIH3T3, luminescence, dose retest, confirmation (AID 435004); assay type: functional;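 note: stress induced by proteasome inhibitor MG132 added 30 min after compound; luciferase reporter driven by HSF1 response element in NIH3T3 cells; actives raise luminescence as potentiators of the MG132 stress response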
T2 sequence (P38532 whole entry): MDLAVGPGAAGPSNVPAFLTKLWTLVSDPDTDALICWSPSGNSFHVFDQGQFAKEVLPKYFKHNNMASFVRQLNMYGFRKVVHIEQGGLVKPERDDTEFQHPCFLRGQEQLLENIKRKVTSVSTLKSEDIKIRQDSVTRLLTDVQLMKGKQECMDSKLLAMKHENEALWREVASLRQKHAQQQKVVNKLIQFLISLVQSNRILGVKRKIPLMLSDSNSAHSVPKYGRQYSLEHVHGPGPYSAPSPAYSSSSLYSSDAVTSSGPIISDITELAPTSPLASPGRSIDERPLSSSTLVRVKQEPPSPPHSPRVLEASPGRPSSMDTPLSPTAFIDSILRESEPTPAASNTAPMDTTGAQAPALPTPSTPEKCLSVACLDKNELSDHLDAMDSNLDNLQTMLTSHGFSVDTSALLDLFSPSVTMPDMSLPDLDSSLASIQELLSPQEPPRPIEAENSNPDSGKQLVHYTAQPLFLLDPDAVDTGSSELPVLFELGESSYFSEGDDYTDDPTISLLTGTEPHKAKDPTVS

[12] = Counterscreen for activators of the function of SWI/SNF related, matrix associated, actin dependent regulator of chromatin, subfamily a, member 2 (SMARCA2, BRM): Luminescence-based cell-based high throughput dose response assay to identify non-selective compounds using the VP16 reporter assay.; assay type: functional
[13] = molecular target: SWI/SNF-related matrix-associated actin-dependent regulator of chromatin subfamily A member 2 (Homo sapiens, UniProt P51531); experiment: Luminescence-based cell-based high throughput dose response assay to identify activators of the function of SWI/SNF related, matrix associated, actin dependent regulator of chromatin, subfamily a, member 2 (SMARCA2, BRM).; assay type: functional
[14] = mouse fibroblast viability loss – cell-based, cherry-pick samples, set 2, cytotoxicity control for T. cruzi growth inhibitor project, dose response (AID 651817); assay type: functional; details: NIH3T3
[15] = molecular target: T3, Probable nicotinate-nucleotide adenylyltransferase (Staphylococcus aureus (strain N315), UniProt P65502); assay type: functional, Staphylococcus aureus subsp. aureus N315;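 for IC50 Mean: confirmatory dose-response retesting of NadD inhibitor hits first found in an ultra-high-throughput screen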
T3 sequence (P65502 whole entry): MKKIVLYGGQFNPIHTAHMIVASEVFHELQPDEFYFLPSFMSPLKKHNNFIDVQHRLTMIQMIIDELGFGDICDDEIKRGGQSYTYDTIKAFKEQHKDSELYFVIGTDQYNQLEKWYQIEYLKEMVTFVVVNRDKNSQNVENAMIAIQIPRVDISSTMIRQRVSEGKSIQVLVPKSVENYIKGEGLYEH

[16] = molecular target: T4, Sentrin-specific protease 8 (Homo sapiens, UniProt Q96LD8); assay type: functional
T4 sequence (Q96LD8 whole entry): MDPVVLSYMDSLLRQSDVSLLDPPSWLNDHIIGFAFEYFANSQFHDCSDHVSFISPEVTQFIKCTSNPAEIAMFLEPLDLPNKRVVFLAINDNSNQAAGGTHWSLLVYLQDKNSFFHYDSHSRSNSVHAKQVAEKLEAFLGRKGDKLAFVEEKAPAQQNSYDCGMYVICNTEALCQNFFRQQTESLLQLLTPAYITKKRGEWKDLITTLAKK

[17] = molecular target: T3, Probable nicotinate-nucleotide adenylyltransferase; assay type: functional, Staphylococcus aureus subsp. aureus N315; details: read-out: IC50_Mean
[18] = molecular target: T4, Sentrin-specific protease 8; assay type: functional; remark: listed apart in the source
[19] = molecular target: T5, Apoptotic protease-activating factor 1 (Homo sapiens, UniProt O14727); assay type: functional
T5 sequence (O14727 whole entry): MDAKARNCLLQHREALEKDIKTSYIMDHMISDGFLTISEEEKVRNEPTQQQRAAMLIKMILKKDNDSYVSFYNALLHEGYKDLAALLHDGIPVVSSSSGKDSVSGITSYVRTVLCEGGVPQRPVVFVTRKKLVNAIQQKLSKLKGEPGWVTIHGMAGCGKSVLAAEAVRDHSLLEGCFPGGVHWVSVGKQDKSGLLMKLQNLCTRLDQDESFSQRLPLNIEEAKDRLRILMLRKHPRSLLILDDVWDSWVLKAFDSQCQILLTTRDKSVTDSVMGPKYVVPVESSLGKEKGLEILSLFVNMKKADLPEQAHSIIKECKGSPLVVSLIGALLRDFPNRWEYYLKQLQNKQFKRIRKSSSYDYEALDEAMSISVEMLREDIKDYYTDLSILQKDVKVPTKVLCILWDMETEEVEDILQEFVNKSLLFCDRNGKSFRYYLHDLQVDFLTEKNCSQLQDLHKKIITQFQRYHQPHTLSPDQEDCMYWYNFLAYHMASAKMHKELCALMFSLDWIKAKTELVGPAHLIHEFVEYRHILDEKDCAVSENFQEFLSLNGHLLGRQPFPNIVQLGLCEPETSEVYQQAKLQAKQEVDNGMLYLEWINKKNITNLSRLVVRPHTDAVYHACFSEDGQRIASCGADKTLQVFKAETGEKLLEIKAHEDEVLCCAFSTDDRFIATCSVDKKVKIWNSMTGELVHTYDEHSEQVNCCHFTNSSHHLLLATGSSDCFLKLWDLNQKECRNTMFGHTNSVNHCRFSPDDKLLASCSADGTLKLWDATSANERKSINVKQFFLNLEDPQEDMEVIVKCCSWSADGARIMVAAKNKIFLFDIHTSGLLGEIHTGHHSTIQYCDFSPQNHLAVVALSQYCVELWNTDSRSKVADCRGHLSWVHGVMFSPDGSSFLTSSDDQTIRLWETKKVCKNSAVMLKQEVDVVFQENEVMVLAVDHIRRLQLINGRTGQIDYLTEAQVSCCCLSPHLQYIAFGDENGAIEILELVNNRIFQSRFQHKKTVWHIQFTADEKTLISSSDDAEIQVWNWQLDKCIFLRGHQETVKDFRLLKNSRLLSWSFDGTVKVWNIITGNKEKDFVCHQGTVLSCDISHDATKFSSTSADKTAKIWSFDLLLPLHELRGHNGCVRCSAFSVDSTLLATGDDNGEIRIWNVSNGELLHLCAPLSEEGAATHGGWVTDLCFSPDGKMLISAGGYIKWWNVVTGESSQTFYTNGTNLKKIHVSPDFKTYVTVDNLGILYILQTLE

[20] = molecular target: T6, Fatty acid synthase (Homo sapiens, UniProt P49327); experiment: inhibition of human FAS-TE enzyme activity – biochemical, kinetic fluorescence intensity, dose response (AID 624326); assay type: functional;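 note: rate of fluorescence rise from hydrolysis of a fluorogenic O-methyl fluorescein ester substrate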
T6 sequence (P49327 whole entry): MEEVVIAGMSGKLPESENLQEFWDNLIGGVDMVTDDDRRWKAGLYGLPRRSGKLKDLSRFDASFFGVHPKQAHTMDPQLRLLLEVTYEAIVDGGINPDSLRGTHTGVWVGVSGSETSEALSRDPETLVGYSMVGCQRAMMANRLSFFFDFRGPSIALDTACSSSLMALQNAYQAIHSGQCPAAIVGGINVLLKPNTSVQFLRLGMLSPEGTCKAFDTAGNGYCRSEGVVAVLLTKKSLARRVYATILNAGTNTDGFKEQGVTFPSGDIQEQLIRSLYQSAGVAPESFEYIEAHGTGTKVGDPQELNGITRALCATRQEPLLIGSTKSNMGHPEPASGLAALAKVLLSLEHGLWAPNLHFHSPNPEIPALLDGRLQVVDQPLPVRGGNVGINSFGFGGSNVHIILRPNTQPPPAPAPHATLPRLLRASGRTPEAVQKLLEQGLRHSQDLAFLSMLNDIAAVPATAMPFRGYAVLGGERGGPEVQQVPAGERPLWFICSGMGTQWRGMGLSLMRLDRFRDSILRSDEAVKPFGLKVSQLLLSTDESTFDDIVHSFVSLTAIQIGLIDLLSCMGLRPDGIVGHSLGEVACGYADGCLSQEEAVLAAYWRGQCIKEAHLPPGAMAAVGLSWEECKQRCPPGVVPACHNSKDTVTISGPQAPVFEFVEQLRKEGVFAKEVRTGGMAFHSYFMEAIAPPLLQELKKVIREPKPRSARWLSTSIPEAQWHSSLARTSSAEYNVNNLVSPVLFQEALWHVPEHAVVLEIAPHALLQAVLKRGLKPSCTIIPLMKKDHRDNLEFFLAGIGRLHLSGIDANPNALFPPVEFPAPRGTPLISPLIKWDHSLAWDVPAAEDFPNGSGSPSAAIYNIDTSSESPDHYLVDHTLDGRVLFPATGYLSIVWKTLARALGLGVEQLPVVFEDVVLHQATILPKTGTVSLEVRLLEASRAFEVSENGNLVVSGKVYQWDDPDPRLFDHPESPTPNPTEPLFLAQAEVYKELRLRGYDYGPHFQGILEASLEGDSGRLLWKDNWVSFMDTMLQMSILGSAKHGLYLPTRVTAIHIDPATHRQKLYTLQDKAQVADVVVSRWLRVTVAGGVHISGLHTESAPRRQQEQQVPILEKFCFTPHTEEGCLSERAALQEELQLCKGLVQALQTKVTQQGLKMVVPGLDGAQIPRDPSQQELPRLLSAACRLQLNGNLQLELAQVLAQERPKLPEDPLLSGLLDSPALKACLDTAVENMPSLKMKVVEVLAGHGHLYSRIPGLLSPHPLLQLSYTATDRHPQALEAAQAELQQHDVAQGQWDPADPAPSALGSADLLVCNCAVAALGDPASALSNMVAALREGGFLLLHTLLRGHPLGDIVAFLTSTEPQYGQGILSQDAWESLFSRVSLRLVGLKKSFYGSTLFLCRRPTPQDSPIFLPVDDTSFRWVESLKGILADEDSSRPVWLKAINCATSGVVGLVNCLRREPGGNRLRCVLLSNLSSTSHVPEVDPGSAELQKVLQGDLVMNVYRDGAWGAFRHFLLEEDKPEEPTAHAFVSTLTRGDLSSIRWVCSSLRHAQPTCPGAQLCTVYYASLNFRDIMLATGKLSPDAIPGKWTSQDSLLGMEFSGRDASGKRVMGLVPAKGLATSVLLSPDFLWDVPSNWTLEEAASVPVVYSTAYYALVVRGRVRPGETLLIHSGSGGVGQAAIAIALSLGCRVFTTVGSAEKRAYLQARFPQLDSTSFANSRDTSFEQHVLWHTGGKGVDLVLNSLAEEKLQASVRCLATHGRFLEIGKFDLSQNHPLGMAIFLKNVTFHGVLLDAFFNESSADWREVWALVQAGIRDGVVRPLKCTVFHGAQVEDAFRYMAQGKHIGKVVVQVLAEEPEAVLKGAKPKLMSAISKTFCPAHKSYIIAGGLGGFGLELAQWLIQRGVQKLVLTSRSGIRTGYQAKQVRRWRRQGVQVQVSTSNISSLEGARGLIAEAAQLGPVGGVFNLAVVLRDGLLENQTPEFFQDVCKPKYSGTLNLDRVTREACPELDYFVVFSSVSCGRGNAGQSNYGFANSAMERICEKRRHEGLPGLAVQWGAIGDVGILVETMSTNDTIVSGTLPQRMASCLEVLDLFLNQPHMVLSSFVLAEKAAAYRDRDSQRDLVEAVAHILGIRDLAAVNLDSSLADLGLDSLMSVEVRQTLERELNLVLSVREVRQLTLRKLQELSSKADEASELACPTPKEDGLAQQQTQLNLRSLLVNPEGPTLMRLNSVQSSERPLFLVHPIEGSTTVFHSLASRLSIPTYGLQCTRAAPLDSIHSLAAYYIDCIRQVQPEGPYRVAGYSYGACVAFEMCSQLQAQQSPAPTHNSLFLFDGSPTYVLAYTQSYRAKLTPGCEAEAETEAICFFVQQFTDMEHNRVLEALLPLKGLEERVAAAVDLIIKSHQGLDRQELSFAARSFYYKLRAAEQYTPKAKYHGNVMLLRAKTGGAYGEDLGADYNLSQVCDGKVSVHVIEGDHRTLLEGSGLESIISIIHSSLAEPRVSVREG

[21] = molecular target: T6, Fatty acid synthase; experiment: inhibition of human FAS-TE enzyme activity – biochemical, endpoint fluorescence intensity, uHTS hits, dose response (AID 624327); assay type: functional;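 note: fluorescence from hydrolysis of an O-methyl fluorescein acyl ester substrate by the enzyme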

Chain of Cytochrome P450 3A4 (P08684 whole entry, the tested form may be a part): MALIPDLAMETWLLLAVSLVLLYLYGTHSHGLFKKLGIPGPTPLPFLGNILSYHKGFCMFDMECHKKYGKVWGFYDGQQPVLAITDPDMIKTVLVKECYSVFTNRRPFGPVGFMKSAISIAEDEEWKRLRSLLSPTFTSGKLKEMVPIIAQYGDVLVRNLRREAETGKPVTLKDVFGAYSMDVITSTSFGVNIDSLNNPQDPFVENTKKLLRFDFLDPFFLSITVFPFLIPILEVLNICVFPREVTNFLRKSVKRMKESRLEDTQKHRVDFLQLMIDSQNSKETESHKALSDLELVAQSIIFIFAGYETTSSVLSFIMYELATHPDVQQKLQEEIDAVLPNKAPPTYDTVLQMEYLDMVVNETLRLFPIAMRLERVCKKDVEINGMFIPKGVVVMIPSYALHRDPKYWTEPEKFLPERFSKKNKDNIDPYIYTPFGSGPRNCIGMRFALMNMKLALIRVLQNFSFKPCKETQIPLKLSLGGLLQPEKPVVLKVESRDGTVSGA

O=S1(=O)CCN(c2ccccc2CC(c2c[nH]c3ccccc23)c2c[nH]c3ccccc23)CC1
AC50 [1]: 2.51 µM (inconclusive)
AC50 [2]: 24.6 µM (active)
AC50 [3]: < 0.26 µM (active)
AC50 [4]: < 0.26 µM (active)
AC50 [5]: 1.06 µM (active)
AC50 [6]: 0.555 µM (active)

COc1cc(Br)cc2cc(C(=O)N3CCN(C(=O)c4ccco4)CC3)c(=O)oc12
IC50 [7]: > 94.1 µM (inactive)

O=C(CSc1nnc(NC(=O)c2ccccc2F)s1)NCc1ccc(F)cc1
IC50 [8]: > 59.6 µM (inactive)
IC50 [9]: > 59.6 µM (inactive)
IC50 [10]: > 59.6 µM (inactive)

CCCc1cc(=O)oc2c3c(cc(OCC(=O)N[C@@H](C)C(=O)O)c12)OC(C)(C)CC3
IC50 [8]: > 59.6 µM (inactive)
IC50 [9]: > 59.6 µM (inactive)
EC50 [11]: > 260 µM (inactive)
IC50 [10]: > 59.6 µM (inactive)

NC(CCc1ccccc1)c1csc(Nc2ccccn2)n1 (stereo not given)
AC50 [2]: 38.1 µM (active)
AC50 [3]: 6.61 µM (active)
AC50 [4]: 7.52 µM (active)
AC50 [5]: 22.6 µM (active)
AC50 [6]: 3.22 µM (active)

CCCCCCN[C@H]1CCC2C3CC=C4C[C@@H](O)CC[C@]4(C)C3CC[C@@]21C (stereo not given in full)
EC50 [12]: > 91.2 µM (inactive)
EC50 [13]: > 91.2 µM (inactive)

C[C@H](CO)N1C[C@H](C)[C@@H](CN(C)Cc2ccc(Cl)c(Cl)c2)Oc2ccc(NS(=O)(=O)c3ccc(F)cc3)cc2CC1=O
AC50 [14]: 10.6 µM (active)

Cc1ccc(S(=O)(=O)Nc2ccc3c(c2)CC(=O)N([C@@H](C)CO)C[C@@H](C)[C@@H](CN(C)S(=O)(=O)c2ccc(Cl)cc2)O3)cc1
AC50 [14]: 35 µM (active)

Cc1nn(-c2ccc(Cl)cc2)c(O)c1C(c1ccccc1O)c1c(C)[nH]n(-c2ccc(Cl)cc2)c1=O (stereo not given)
IC50 [15]: 6.68 µM (active)
IC50 [16]: 8.38 µM (active)
IC50 [17]: 21.1 µM (active)
IC50 [18]: 32.9 µM (active)
IC50 [19]: 13.3 µM (active)

COc1ccc(/C=N\NC(=O)CNC(=O)C(c2ccccc2)c2ccccc2)cc1[N+](=O)[O-]
IC50 [20]: 12.3 µM (active)
IC50 [21]: 16.6 µM (active)
